Drawing on US12036315B2, “Pharmaceutical composition for oral administration comprising enzalutamide” (Astellas Pharma Inc., priority 2017, dated 2024), this text covers solubility for one molecule.

Converted amounts (≈) assume the structure as drawn.

This series in a line: Solubility of enzalutamide in water. The format is physicochemical. To be noted: 20° C.±5° C. The source says: The term “to improve solubility” as used herein means that the solubility, the dissolved concentration, or the dissolved rate of enzalutamide in a solvent is increased.
It is possible to obtain good solubility and/or good dissolution properties by applying the technology of the present invention. Further, it is possible to obtain good oral absorbability by applying the technology of the present invention.

A word on the solubility: it is the dissolved amount per volume that the medium holds. Lower therefore signals little dissolved substance. With `CNC(=O)c1ccc(N2C(=S)N(c3ccc(C#N)c(C(F)(F)F)c3)C(=O)C2(C)C)cc1F` [Enzalutamide, 4-{3-[4-cyano-3-(trifluoromethyl)phenyl]-5,5-dimethyl-4-oxo-2-sulfanylideneimidazolidin-1-yl}-2-fluoro-N-methylbenzamide], the concentration in solution (solubility) came to 2 µg/mL (≈ 4.31 µM).
